The results in this text go back to US10383880B2 (Reset Therapeutics, Inc., priority 2012, dated 2019).

For this assay, the system named is Per2-dLuc U2OS reporter cells. Nature of the assay: Per2 assay for evaluating the potency of test compounds (high-throughput circadian assay). In kind it is cell-based. The settings on record: Homo sapiens, U2OS, stable U2OS reporter cells harboring Per2-dLuc; luminescence monitored over 4-5 days at 35° C. How it is done:
Compounds were screened by using a high-throughput circadian assay system as previously described in Zhang, E. E. et al. Cell, 2009, 139, 199-210. In brief, stable U2OS reporter cells harboring Per2-dLuc were plated at a density of 8,000 cells/well in Corning 96-well, solid white, flat bottom, TC-treated microplates (Corning®), and incubated for 24 hours at 37° C. in the presence of 5% CO2. The cells were then synchronized by serum shock by media exchange to a minimal explant media (10 mM HEPES (pH 7.0), 2% B27, 1×PSG (Invitrogen®), and 1.0 mM beetle luciferin (Promega®)) followed by the addition of the compounds of formula I dissolved in dimethylsulfoxide (0.5% final dimethylsulfoxide concentration). Gene expression was monitored by measuring luminescence (TecanR M200) over 4-5 days at 35° C. The period, amplitude, and phase of the associated circadian rhythms were determined using Multicycle™ software (Actimetrics, Inc). EC50 values of the compounds of formula I were calculated using Graphpad™ (Prism®).
Take `O=S1(=O)C(F)CCN1CC(O)Cn1c2ccccc2c2ccccc21` (stereo not shown) [Compound 120, 2-(3-(9H-Carbazol-9-yl)-2-hydroxypropyl)-5-fluoro-isothiazolidine-1,1-dioxide]: a half-maximal response (EC50) required 23 nM.
`CC1CCN(CC(O)Cn2c3ccc(F)cc3c3cc(F)ccc32)S1(=O)=O` (stereo not shown) [Compound 177] yielded an EC50 of 202 nM.
Molecule `CC1CCCC1N(CC(O)Cn1c2ccccc2c2ccccc21)S(C)(=O)=O` (stereo not shown) [Compound 136, N-(3-(9H-Carbazol-9-yl)-2-hydroxypropyl)-N-(2-methylcyclopentyl)methanesulfonamide] yielded an EC50 of 113 nM.
The figure for `O=S(=O)(CCCF)N(Cc1ccco1)CC(O)Cn1c2ccccc2c2ccccc21` (stereo not shown) [Compound 10, N-(3-(9H-Carbazol-9-yl)-2-hydroxypropyl)-3-fluoro-N-(furan-2-ylmethyl)propane-1-sulfonamide] is 1130 nM; for `COC1CCCC(N(CC(O)Cn2c3ccc(F)cc3c3cc(F)ccc32)S(C)(=O)=O)C1` (stereo not shown) [Compound 198, N-(3-(3,6-Difluoro-9H-carbazol-9-yl)-2-hydroxypropyl)-N-(3-methoxycyclohexyl)methanesulfonamide] it is 1230 nM; for `CS(=O)(=O)N(CC(O)Cn1c2ccccc2c2ccccc21)CC1CCCC1` (stereo not shown) [Compound 50, N-(3-(9H-Carbazol-9-yl)-2-hydroxypropyl)-N-(cyclopentylmethyl)methanesulfonamide] it is 148 nM.
Under `O=S1(=O)CCCN1CC(O)Cn1c2ccc(F)cc2c2ccc(F)cc21` (stereo not shown) [Compound 101, N-(3-(2,6-Difluoro-9H-carbazol-9-yl)-2-hydroxypropyl)-isothiazolidine-1,1-dioxide] stands 50 nM; under `COC1CCCC(N(CC(O)Cn2c3ccccc3c3ccccc32)S(C)(=O)=O)C1` (stereo not shown) [Compound 139, N-(3-(9H-Carbazol-9-yl)-2-hydroxypropyl)-N-(3-methoxycyclohexyl)methanesulfonamide], 263 nM; under `CN1CCN(CC(O)Cn2c3ccc(F)cc3c3cc(F)ccc32)S1(=O)=O` (stereo not shown) [Compound 173], 86 nM.
Molecule `CC(C)(C(O)Cn1c2ccc(F)cc2c2cc(F)ccc21)N1CCCS1(=O)=O` (stereo not shown) [Compound 244, 2-(4-(3,6-Difluoro-9H-carbazol-9-yl)-3-hydroxy-2-methylbutan-2-yl)isothiazolidine-1,1-dioxide] registered an EC50 of 57 nM.
Consider `CS(=O)(=O)N(CC(O)Cn1c2ccccc2c2ccccc21)c1cccc(Cl)c1` (stereo not shown) [Compound 64, N-(3-(9H-Carbazol-9-yl)-2-hydroxypropyl)-N-(3-chlorophenyl)methanesulfonamide], for which the EC50 turned out to be 1000 nM.
Under `CC1CC(N(CC(O)Cn2c3ccccc3c3ccccc32)S(C)(=O)=O)C1` (stereo not shown) [Compound 131, N-(3-(9H-Carbazol-9-yl)-2-hydroxypropyl)-N-(3-methylcyclobutyl)methanesulfonamide] stands 79 nM; under `CS(=O)(=O)N(CC(O)Cn1c2ccc(F)cc2c2cc(F)ccc21)c1ccc(C2CCC2)cc1` (stereo not shown) [Compound 211, N-(4-Cyclobutylphenyl)-N-(3-(3,6-difluoro-9H-carbazol-9-yl)-2-hydroxypropyl)methanesulfonamide], 9240 nM; under `O=S1(=O)CCCCN1CC(O)Cn1c2ccc(F)cc2c2c(F)cccc21` (stereo not shown) [Compound 107, N-(3-(3,5-Diflouoro-9H-carbazol-9-yl)-2-hydroxypropyl)-1,2-thiazinane 1,1-dioxide], 240 nM.
`O=S1(=O)CCCCN1C[C@@H](O)Cn1c2ccccc2c2ccccc21` [Compound 38, (S)-N-(3-(9H-Carbazol-9-yl)-2-hydroxypropyl)-1,2-thiazinane 1,1-dioxide] had an EC50 of 11 nM.
`CS(=O)(=O)N(CC(O)Cn1c2ccccc2c2ccccc21)CC1CCCCC1` (stereo not shown) [Compound 52, N-(3-(9H-Carbazol-9-yl)-2-hydroxypropyl)-N-(cyclohexylmethyl)methanesulfonamide] returned an EC50 of 306 nM.
For the molecule `CC(O)(CN1CCC(F)S1(=O)=O)Cn1c2ccc(F)cc2c2cc(F)ccc21` (stereo not shown) [Compound 184, 2-(3-(3,6-Difluoro-9H-carbazol-9-yl)-2-hydroxy-2-methylpropyl)-5-fluoroisothiazolidine-1,1-dioxide], the EC50 is 155 nM.
With `CS(=O)(=O)N(CC(O)Cn1c2ccccc2c2ccccc21)c1ccccc1I` (stereo not shown) [Compound 26, N-(3-(9H-Carbazol-9-yl)-2-hydroxypropyl)-N-(2-iodophenyl)methanesulfonamide], the midpoint of the response, the EC50, lay at 1300 nM.
Under `CC1(N(CC(O)Cn2c3ccc(F)cc3c3cc(F)ccc32)S(C)(=O)=O)CC1` (stereo not shown) [Compound 188, N-(3-(3,6-Difluoro-9H-carbazol-9-yl)-2-hydroxypropyl)-N-(1-methylcyclopropyl)methanesulfonamide] stands 147 nM; under `CC1CC(N(CC(C)(O)Cn2c3ccc(F)cc3c3cc(F)ccc32)S(C)(=O)=O)C1` (stereo not shown) [Compound 191, N-(3-(3,6-Difluoro-9H-carbazol-9-yl)-2-hydroxy-2-methylpropyl)-N-(3-methylcyclobutyl)methanesulfonamide], 1190 nM.
Under `CC1CCCN(CC(O)Cn2c3ccccc3c3ccccc32)S1(=O)=O` (stereo not shown) [Compound 111, N-(3-(9H-Carbazol-9-yl)-2-hydroxypropyl)-6-methyl-1,2-thiazinane-1,1-dioxide] stands 84 nM.
`COCCN(CC(O)Cn1c2ccc(F)cc2c2ccc(F)cc21)S(C)(=O)=O` (stereo not shown) [Compound 104, N-(3-(2,6-Difluoro-9H-carbazol-9-yl)-2-hydroxypropyl)-N-(2-methoxyethyl)methanesulfonamide] showed an EC50 of 3500 nM.
`CS(=O)(=O)N(Cc1ccco1)CC(O)Cn1c2ccc(F)cc2c2cc(F)ccc21` (stereo not shown) [Compound 88, N-(3-(3,6-Difluoro-9H-carbazol-9-yl)-2-hydroxypropyl)-N-(furan-2-ylmethyl)methanesulfonamide] registered an EC50 of 940 nM.
In turn, `COCCN(CC(O)Cn1c2cc(F)ccc2c2c(F)cccc21)S(C)(=O)=O` (stereo not shown) [Compound 99, N-(3-(2,5-Difluoro-9H-carbazol-9-yl)-2-hydroxypropyl)-N-(2-methoxyethyl)methanesulfonamide] displayed an EC50 of 3550 nM.
Molecule `COc1ccc(N(CC(O)Cn2c3ccccc3c3ccccc32)S(C)(=O)=O)cc1` (stereo not shown) [Compound 21, N-(3-(9H-Carbazol-9-yl)-2-hydroxypropyl)-N-(4-methoxyphenyl)methanesulfonamide] gave an EC50 of 440 nM.
With `CN1CCN(CC(C)(O)Cn2c3ccc(F)cc3c3cc(F)ccc32)S1(=O)=O` (stereo not shown) [Compound 174], a half-maximal response (EC50) required 80 nM.
Consider `CC(C)N(CC(O)Cn1c2ccc(F)cc2c2cc(F)ccc21)S(C)(=O)=O` (stereo not shown) [Compound 117, N-(3-(3,6-Difluoro-9H-carbazol-9-yl)-2-hydroxypropyl)-N-isopropylmethanesulfonamide], for which it took 127 nM to reach a half-maximal effect (EC50).
With `CS(=O)(=O)N(CC(O)Cn1c2ccccc2c2ccccc21)C1(C(F)(F)F)CC1` (stereo not shown) [Compound 145, N-(3-(9H-Carbazol-9-yl)-2-hydroxypropyl)-N-(1-(trifluoromethyl)cyclopropyl)methanesulfonamide], the EC50 was determined as 1350 nM.
On to `O=S1(=O)N(CC(O)Cn2c3ccc(F)cc3c3cc(F)ccc32)CCN1C1CCC1` (stereo not shown) [Compound 234], for which a half-maximal effect (EC50) was put at 289 nM.
`O=S(=O)(N(Cc1ccco1)CC(O)Cn1c2ccccc2c2ccccc21)C(F)(F)F` (stereo not shown) [Compound 83, N-(3-(9H-Carbazol-9-yl)-2-hydroxypropyl)-1,1,1-trifluoro-N-(furan-2-ylmethyl)methanesulfonamide] displayed an EC50 of 413 nM.
Consider `CC1CCN(CC(C)(O)Cn2c3ccc(F)cc3c3cc(F)ccc32)S1(=O)=O` (stereo not shown) [Compound 179, 2-(3-(3,6-Difluoro-9H-carbazol-9-yl)-2-hydroxy-2-methylpropyl)-5-methylisothiazolidine-1,1-dioxide], for which the EC50 was determined as 1200 nM.
In turn, `CC1CCC(N(CC(O)Cn2c3ccccc3c3ccccc32)S(C)(=O)=O)CC1` (stereo not shown) [Compound 126, N-(3-(9H-Carbazol-9-yl)-2-hydroxypropyl)-N-(4-methylcyclohexyl)methanesulfonamide] gave an EC50 of 425 nM.
For the molecule `CS(=O)(=O)N(Cc1ccccc1F)CC(O)Cn1c2ccccc2c2ccccc21` (stereo not shown) [Compound 68, N-(3-(9H-Carbazol-9-yl)-2-hydroxypropyl)-N-(2-fluorobenzyl)methanesulfonamide], the EC50 was determined as 1990 nM.
Under `O=S1(=O)CCCCN1CC(O)Cn1c2ccccc2c2ccccc21` (stereo not shown) [Compound 33, N-(3-(9H-Carbazol-9-yl)-2-hydroxypropyl)-1,2-thiazinane 1,1-dioxide] stands 35 nM; under `CS(=O)(=O)N(CC(O)Cn1c2ccc(F)cc2c2cc(F)ccc21)c1ccc(C2CC2)cc1` (stereo not shown) [Compound 207, N-(4-Cyclopropylphenyl)-N-(3-(3,6-difluoro-9H-carbazol-9-yl)-2-hydroxypropyl)methanesulfonamide], 2950 nM; under `CS(=O)(=O)N(Cc1ccc(F)cc1)CC(O)Cn1c2ccccc2c2ccccc21` (stereo not shown) [Compound 60, N-(3-(9H-Carbazol-9-yl)-2-hydroxypropyl)-N-(4-fluorobenzyl)methanesulfonamide], 1220 nM.
Under `Cc1ccc(S(=O)(=O)N(C)c2ccc(N(CC(O)Cn3c4ccccc4c4ccccc43)S(C)(=O)=O)cc2)cc1` (stereo not shown) [Compound 31, N-(4-(N-(3-(9H-Carbazol-9-yl)-2-hydroxypropyl)methylsulfonamido)phenyl)-N,4-dimethylbenzenesulfonamide] stands 1400 nM.

In general, EC50 refers to the concentration that produces a half-maximal response.
